Measured values from patent US20170020909A1, “METHODS OF TREATING GLAUCOMA USING AMP-ACTIVATED PROTEIN KINASE (AMPK) ACTIVATORS” (Massachusetts Eye and Ear Infirmary, priority 2014, published 2017).

Key:
[1] = test system: perfused ex vivo human anterior segments; assay: IOP in constant-flow-perfused ex vivo human anterior segments; details: 2.5 μL of 200 mM AICAR in 1 mL of ex vivo media, by day 7, mean±SEM, n=3
From the text: The effects of AICAR on IOP in perfused constant flow ex vivo human anterior segments was examined using well-established and validated methods (see, e.g., Oh et al., Invest. Ophthalmol. Vis. Sci. 2013; 54:3309-19; Ethier et al., Invest. Ophthalmol. Vis. Sci. 2004; 45:1863-70). Briefly, all donor pairs of eyes were obtained from National Disease Research Interchange (NDRI, Philadelphia, Pa.) according to the provisions of the Declaration of Helsinki for research involving human tissue. Eyes were obtained within 24 hours after death. No donors were known to have a history of glaucoma or other ocular disorder. Human perfused anterior segment cultures were prepared by scoring the surface of the eye around ora serrata with a surgical blade, and the full-thickness incision was completed around the eye with scissors. The vitreous, lens, and iris were removed. […] IOP was monitored with a pressure transducer (Argon Medical Devices, Athens, Tex.) and were recorded with an automated computerized system (National Instruments, Austin, Tex.) every second and averaged each hour. […] Effects of AICAR treatment on IOP are expressed as the percentage change in IOP (compared to baseline). Values are expressed as mean±SEM, and paired two-tailed student t-tests are applied to determine significance of difference in IOP between control and experimental groups at selected time intervals. […]

RhoA = assay: Immunoblot of p-RhoA (Ser188)/total RhoA in human TM cell lysates; format: cell-based; details: 0.5 mM AICAR
Experimental: Primary human trabecular meshwork (TM) cells were isolated, in accordance with the Declaration of Helsinki, and maintained in culture as described previously.^63 Independent primary human TM cell lines were generated from donors ranging in age from 35 to 72 years and no known history of ocular disease. Cell cultures were maintained, unless otherwise stated, in Dulbecco's modified eagle medium (Life Technologies, Grand Island, N.Y.) containing 20% fetal bovine serum, 1% L-glutamine (2 mM), and gentamicin (0.1 mg/ml) at 37° C. in a 10% CO2 atmosphere. Only TM cells from third through fifth passage were used. […]
At the conclusion of each experiment for matricellular and ECM protein detection, conditioned media (CM) from TM cell cultures was harvested and centrifuged at 5000 rpm for 10 minutes at 4° C. The supernatant was then concentrated (Amicon Ultra-4 Filter Unit, 10 kDa; Millipore, Milford, Mass.), and protein content quantified using the DC Protein Assay kit adhering to manufacturer's protocols (Bio-Rad, Hercules, Calif.). […] Samples were then centrifuged at 14,000 rpm for 15 minutes at 4° C. and protein content quantified. […] The membranes were then washed three times with 1×TBS-T, scanned, and integrated band intensities were calculated using an infrared imaging system (Odyssey; Li-Cor, Lincoln, Nebr.). […]

NC(=O)c1ncn([C@@H]2O[C@H](CO)[C@@H](O)[C@H]2O)c1N [AICAR, 5-Aminoimidazole-4-carboxamide riboside]
mean decrease in IOP compared with paired opposite eye controls [1]: 18.54±1.78% | duration of the phospho-total RhoA ratio increase (RhoA; through 24 hours): remained statistically significant through 24 hours | increase of phospho-total RhoA ratio (Ser188) (RhoA; within one hour, human TM cells): approximately 10 fold
